What all share (test): Kinase selectivity, scanMAX Kinase assay panel (DiscoverX), % control at 1 uM
Holding throughout (format): binding

Assay [1] concerns the target T1, scanMAX Kinase assay panel (Homo sapiens, UniProt Q16659).
T1 construct: purchased DiscoverX
The conditions noted are these: ERK3; 1 uM; read-out: Percent Control (%). The gist of the method:
(§1)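 Activity was called for kinases showing % control under 35, calculated from compound signal relative to positive and negative controls. Each compound screened at 1 uM against the DiscoverX scanMAX panel.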

The target in assay [2] is T2, scanMAX Kinase assay panel (Homo sapiens, UniProt P78368).
T2 construct: purchased DiscoverX
Particulars: CSNK1G2; 1 uM; read-out: Percent Control (%). The gist of the method: as §1

In assay [3] the target is T3, scanMAX Kinase assay panel (Homo sapiens, UniProt Q59H18).
T3 construct: purchased DiscoverX
T3 sequence (Q59H18 1-835): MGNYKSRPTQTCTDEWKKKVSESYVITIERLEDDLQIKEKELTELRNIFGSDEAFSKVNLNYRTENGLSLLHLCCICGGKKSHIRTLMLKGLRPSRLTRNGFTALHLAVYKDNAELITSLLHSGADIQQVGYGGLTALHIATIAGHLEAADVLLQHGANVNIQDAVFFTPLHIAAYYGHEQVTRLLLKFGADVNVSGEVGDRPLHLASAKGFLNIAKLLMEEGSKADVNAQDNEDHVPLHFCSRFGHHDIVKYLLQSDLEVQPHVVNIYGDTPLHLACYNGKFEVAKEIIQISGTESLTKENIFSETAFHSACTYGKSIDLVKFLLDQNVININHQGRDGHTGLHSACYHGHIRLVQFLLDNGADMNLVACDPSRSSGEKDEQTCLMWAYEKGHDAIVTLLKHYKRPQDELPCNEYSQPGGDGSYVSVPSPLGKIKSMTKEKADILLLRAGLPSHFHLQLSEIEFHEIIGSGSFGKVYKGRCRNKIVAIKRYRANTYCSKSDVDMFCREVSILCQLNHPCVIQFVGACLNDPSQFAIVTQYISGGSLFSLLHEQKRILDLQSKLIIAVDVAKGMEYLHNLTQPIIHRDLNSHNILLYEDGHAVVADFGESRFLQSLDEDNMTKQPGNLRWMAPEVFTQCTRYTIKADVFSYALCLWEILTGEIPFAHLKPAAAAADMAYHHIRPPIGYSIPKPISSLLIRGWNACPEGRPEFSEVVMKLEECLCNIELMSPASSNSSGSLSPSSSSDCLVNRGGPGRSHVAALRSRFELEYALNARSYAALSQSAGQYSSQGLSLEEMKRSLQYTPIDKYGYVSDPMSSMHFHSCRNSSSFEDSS
The conditions noted are these: TNNI3K; 1 uM; read-out: Percent Control (%). The essentials: as §1

Assay [4] deals with T4, scanMAX Kinase assay panel (Homo sapiens, UniProt Q16620).
T4 construct: purchased DiscoverX
Particulars: TRKB; 1 uM; read-out: Percent Control (%). The gist of the method: as §1

Assay [5] has as its target T5, scanMAX Kinase assay panel (Homo sapiens, UniProt P10721, L576P).
T5 construct: purchased DiscoverX
Particulars: KIT (L576P); 1 uM; read-out: Percent Control (%). The gist of the method: as §1

Assay [6] addresses T6, scanMAX Kinase assay panel (Homo sapiens, UniProt Q9Y2H9).
T6 construct: purchased DiscoverX
The conditions noted are these: MAST1; 1 uM; read-out: Percent Control (%). The essentials: as §1

In assay [7] the target is T7, scanMAX Kinase assay panel (Homo sapiens, UniProt P00533, L858R).
T7 construct: purchased DiscoverX
Particulars: EGFR (L858R); 1 uM; read-out: Percent Control (%). The essentials:
as §1

Assay [8] addresses T8, scanMAX Kinase assay panel (Homo sapiens, UniProt P54764).
T8 construct: purchased DiscoverX
The conditions noted are these: EPHA4; 1 uM; read-out: Percent Control (%). The essentials: as §1

Assay [9] deals with T9, scanMAX Kinase assay panel (Homo sapiens, UniProt P10721, D816V).
T9 construct: purchased DiscoverX
Particulars: KIT (D816V); 1 uM; read-out: Percent Control (%). The gist of the method:
as §1

The target of assay [10] is T10, scanMAX Kinase assay panel (Homo sapiens, UniProt Q15349).
T10 construct: purchased DiscoverX
The conditions noted are these: 1 uM, read-out: Percent Control (%). The gist of the method:
as §1

For assay [11], the target named is T11, scanMAX Kinase assay panel (Homo sapiens, UniProt Q02779).
T11 construct: purchased DiscoverX
The conditions noted are these: MLK2; 1 uM; read-out: Percent Control (%). The essentials: as §1

For assay [12], the target named is T12, scanMAX Kinase assay panel (Homo sapiens, UniProt P28482).
T12 construct: purchased DiscoverX
The conditions noted are these: ERK2; 1 uM; read-out: Percent Control (%). The essentials:
as §1

The source of these data is patent US10870647B2, “Imidazopyridine derivative, method for preparing same, and pharmaceutical composition containing same as active ingredient for preventing or treating cancer” (DAEGU-GYEONGBUK MEDICAL INNOVATION FOUNDATION, priority 2016, dated 2020).

Read-outs that look alike come from different tables or passages of the source.

T9 sequence (P10721 26-976 D816V): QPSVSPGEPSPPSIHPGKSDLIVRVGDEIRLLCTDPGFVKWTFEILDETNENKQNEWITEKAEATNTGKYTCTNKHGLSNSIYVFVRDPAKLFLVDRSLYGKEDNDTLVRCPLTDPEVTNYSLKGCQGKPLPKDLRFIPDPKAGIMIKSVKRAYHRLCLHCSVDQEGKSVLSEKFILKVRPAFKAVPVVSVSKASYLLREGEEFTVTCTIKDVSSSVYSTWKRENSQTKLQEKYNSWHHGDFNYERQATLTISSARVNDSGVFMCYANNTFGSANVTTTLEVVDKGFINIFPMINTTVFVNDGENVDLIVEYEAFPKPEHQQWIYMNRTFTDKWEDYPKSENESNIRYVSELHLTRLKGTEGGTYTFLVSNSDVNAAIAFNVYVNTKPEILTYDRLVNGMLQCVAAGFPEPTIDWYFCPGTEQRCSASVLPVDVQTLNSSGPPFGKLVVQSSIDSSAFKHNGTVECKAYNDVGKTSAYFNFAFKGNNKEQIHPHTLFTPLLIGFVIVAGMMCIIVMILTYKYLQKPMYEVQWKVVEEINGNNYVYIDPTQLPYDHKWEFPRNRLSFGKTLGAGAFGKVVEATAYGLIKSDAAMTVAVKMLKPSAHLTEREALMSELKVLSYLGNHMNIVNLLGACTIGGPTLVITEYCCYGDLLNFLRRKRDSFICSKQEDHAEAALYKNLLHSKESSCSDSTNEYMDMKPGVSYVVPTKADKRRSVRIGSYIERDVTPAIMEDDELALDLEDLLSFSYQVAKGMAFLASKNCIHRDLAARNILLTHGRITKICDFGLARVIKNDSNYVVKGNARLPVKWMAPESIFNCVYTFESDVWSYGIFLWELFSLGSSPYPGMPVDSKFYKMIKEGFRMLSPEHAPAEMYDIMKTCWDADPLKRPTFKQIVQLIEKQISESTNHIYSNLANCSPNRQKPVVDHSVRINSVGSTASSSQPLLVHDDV
T8 sequence (P54764 20-986): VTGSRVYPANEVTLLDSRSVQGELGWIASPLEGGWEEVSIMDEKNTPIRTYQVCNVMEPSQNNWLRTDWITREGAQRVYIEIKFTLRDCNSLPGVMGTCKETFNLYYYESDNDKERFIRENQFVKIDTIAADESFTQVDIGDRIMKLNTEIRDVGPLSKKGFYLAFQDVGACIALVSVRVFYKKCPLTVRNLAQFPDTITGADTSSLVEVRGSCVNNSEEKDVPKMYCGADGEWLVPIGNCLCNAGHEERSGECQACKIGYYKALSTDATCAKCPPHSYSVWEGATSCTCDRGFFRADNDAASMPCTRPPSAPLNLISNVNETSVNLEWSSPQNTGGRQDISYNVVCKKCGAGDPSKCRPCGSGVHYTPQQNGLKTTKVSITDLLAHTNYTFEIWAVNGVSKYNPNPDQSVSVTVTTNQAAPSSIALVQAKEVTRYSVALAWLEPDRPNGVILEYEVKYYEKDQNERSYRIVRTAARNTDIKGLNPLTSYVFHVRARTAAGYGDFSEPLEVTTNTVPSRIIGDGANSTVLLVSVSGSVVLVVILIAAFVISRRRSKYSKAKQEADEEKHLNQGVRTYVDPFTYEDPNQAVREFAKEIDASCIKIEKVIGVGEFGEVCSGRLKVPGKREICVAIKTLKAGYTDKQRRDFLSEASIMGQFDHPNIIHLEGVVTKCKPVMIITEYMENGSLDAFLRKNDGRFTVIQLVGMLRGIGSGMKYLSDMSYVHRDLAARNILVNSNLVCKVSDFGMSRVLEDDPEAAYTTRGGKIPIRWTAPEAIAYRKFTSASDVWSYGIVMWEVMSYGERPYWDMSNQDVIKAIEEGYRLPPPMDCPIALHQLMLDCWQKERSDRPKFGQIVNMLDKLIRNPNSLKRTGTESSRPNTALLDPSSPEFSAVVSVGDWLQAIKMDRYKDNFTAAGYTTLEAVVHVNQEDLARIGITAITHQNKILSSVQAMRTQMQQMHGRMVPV
T5 sequence (P10721 26-976 L576P): as the sequence (P10721 26-976 D816V) above, with L551P, V791D counted along it
T6 sequence (Q9Y2H9 whole entry): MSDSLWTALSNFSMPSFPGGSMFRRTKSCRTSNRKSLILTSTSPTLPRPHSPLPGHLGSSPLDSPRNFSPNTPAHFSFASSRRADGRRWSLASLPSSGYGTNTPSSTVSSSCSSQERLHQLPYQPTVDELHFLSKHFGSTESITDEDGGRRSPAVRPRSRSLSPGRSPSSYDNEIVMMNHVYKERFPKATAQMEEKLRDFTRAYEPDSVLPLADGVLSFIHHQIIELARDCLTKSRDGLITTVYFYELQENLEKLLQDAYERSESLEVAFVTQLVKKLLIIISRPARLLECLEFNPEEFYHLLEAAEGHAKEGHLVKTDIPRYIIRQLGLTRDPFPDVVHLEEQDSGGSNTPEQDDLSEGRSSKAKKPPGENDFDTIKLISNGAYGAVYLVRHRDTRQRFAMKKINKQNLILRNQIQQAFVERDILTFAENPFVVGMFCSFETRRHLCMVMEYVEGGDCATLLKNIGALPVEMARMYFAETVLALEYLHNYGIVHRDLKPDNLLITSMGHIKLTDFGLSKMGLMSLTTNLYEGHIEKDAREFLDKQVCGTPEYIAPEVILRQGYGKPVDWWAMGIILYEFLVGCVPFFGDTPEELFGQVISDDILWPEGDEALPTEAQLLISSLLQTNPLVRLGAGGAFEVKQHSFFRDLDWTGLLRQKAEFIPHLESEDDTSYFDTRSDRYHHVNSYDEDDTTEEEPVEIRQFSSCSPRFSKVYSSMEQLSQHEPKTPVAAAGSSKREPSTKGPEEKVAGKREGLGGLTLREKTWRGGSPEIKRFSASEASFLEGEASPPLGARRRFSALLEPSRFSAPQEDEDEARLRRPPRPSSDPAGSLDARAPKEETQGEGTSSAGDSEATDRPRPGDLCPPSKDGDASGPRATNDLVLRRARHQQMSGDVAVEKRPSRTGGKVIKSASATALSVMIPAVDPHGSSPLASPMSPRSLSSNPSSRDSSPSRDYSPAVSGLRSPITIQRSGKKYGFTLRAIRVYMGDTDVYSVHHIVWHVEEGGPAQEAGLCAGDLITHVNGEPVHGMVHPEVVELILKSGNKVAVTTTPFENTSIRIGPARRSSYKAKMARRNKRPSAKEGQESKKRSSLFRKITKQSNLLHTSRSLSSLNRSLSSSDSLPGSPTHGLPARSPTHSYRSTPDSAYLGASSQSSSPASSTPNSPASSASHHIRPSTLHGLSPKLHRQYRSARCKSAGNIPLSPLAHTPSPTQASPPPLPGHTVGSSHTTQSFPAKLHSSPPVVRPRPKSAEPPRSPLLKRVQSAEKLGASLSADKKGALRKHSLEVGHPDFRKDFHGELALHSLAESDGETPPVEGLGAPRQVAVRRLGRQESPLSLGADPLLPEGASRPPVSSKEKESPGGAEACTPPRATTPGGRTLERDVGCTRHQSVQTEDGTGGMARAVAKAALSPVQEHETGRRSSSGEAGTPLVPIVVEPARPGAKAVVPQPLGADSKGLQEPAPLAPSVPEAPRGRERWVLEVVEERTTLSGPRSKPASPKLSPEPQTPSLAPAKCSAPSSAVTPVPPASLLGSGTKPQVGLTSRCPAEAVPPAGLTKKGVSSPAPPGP
T10 sequence (Q15349 whole entry): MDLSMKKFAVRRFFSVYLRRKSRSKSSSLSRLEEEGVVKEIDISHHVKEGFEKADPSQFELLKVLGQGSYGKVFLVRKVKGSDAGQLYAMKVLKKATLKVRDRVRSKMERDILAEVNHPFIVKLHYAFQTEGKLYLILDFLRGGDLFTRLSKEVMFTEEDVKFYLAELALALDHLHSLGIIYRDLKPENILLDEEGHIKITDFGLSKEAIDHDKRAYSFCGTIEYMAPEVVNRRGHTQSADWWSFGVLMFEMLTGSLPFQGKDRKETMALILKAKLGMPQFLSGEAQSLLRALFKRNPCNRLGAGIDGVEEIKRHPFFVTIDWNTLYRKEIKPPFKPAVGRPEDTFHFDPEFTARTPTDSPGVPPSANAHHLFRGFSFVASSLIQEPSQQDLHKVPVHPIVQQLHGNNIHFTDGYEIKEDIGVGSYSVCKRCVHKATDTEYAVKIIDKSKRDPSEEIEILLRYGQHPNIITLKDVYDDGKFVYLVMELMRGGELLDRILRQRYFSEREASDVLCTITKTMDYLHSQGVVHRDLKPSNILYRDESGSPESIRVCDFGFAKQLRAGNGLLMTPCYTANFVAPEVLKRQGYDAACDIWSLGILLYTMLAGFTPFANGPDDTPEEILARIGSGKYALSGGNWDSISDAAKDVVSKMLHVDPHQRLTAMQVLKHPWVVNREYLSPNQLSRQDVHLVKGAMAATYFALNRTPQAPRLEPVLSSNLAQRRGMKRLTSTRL
T1 sequence (Q16659 whole entry): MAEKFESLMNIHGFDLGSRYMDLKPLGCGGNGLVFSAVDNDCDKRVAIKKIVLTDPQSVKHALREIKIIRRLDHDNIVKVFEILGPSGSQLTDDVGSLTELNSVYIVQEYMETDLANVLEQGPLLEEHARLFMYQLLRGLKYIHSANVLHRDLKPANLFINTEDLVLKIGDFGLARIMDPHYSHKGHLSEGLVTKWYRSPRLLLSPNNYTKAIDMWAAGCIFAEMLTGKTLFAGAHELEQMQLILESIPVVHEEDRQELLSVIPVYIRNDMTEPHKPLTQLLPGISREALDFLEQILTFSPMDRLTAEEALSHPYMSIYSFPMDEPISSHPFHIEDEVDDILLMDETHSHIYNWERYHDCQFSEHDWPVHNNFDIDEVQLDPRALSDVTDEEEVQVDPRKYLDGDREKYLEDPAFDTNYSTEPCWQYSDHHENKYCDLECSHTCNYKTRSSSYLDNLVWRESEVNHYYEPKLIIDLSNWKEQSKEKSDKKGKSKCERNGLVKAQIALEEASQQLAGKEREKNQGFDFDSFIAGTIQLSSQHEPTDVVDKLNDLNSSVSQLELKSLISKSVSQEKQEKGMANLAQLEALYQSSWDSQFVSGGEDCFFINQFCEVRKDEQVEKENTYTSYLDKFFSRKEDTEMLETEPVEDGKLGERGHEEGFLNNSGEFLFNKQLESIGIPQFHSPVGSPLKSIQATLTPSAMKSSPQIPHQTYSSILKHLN

Regarding `Cc1ccc(C(=O)Nc2ccc(CN3CCN(C)CC3)c(C(F)(F)F)c2)cc1C#Cc1cnc2c(Nc3cnn(C)c3)cccn12` [Example 1, 4-methyl-3-((8-((1-methyl-1H-pyrazol-4-yl)amino)imidazo[1,2-a]pyridin-3-yl)ethynyl)-N-(4-((4-methylpiperazin-1-yl)methyl)-3-(trifluoromethyl)phenyl)benzamide], the remaining binding at 1 µM amounted to 100% in [1]; 91% in assay [2]; 0% in [3]; 0% in assay [4]; 0% in assay [5]; 81% in assay [6]. Moreover, the remaining binding at 1 µM was found to be 0% in [7]; 1% in assay [8]; 3% in [9]; 29% in assay [10] (RSK3 (Kin.Dom.1-N-terminal)); 61% in assay [10] (RSK3 (Kin.Dom.2-C-terminal)); 29% in [11]. The remaining binding at 1 µM in assay [12] turned out to be 100%.
As to `Cc1cn(-c2cc(NC(=O)c3ccc(C)c(C#Cc4cnc5c(Nc6cnn(C)c6)cccn45)c3)cc(C(F)(F)F)c2)cn1` [Example 12, 4-methyl-N-(3-(4-methyl-1H-imidazol-1-yl)-5-(trifluoromethyl)phenyl)-3-((8-((1-methyl-1H-pyrazol-4-yl)amino)imidazo[1,2-a]pyridin-3-yl)ethynyl)benzamide], the remaining binding at 1 µM turned out to be 94% in assay [1]; 94% in [2]; 25% in assay [3]; 16% in assay [4]; 17% in [5]; 56% in assay [6]. Further, the remaining binding at 1 µM in assay [7] turned out to be 47%; in assay [8] it was 24%; in assay [9], 7%; in [10] (RSK3 (Kin.Dom.1-N-terminal)) it was 65%; in assay [10] (RSK3 (Kin.Dom.2-C-terminal)) it was 86%; in assay [11], 48%. In addition, in assay [12], the remaining binding at 1 µM was found to be 92%.
As for `Cc1ccc(NC(=O)C2(C(=O)Nc3ccc(F)cc3)CC2)cc1C#Cc1cnc2c(Nc3cnn(C(C)C)c3)cccn12` [Example 78], the remaining binding at 1 µM in assay [1] stood at 100%; in assay [2] it was 100%; in assay [3], 93%; in [4], 89%; in [5], 0%; in assay [6], 82%. In addition, the remaining binding at 1 µM came out at 84% in assay [7]; 91% in assay [8]; 61% in assay [9]; 97% in assay [10] (RSK3 (Kin.Dom.1-N-terminal)); 100% in assay [10] (RSK3 (Kin.Dom.2-C-terminal)); 94% in [11]. For the same molecule, in [12], the remaining binding at 1 µM was found to be 100%.
